Reference: patent publication US11584937B2, “Compositions and methods for controlling plant growth and development” (THE TRUSTEES OF THE UNIVERSITY OF PENNSYLVANIA, priority 2014, dated 2023)

Columns and labels:
APETALA1 (AP1) = assay: AP1 induction (qRT-PCR, pAP1:AP1-GFP imaging) in GR-fusion transgenic plants after treatment; assay type: in vivo, Arabidopsis thaliana; details: 4 hours
Description: For mock treatment, 0.01% ethanol (EtOH) with 0.01% Silwet L-77 was used as control. […] For test of AP1 induction in single or double hemizygous transgenic lines (FIG. 4A, C, and figure S9) treatments were performed by spraying 16-day-old plants grown on plates once with 10 μM dexamethasone and/or 10 μM paclobutrazol. Tissues were harvested after 4 hours. […] 16-day-old 35S:AlcR pAlcA:mir156f/- 35S:LFY-GR/- plants were sprayed with 10 μM dexamethasone plus 10 μM paclobutrazol and exposed to ethanol vapor or water control. Tissues were harvested after 4 hours. […]
For qRT-PCR, RNA was isolated form entire plants after the switch to reproduction using TRIzol reagent (Invitrogen) and RNeasy Mini kits (Qiagen) and processed as previously described (45). […] Quantitative real-time PCR was performed using Power SYBR green mastermix (Applied Biosystems). The mean and standard error were determined using three technical replicates from one representative experiments. […]
For imaging of GFP fluorescence, inflorescence apices were dissected to remove older flowers and imaged using a Leica confocal microscope (Leica, LCS SL) equipped with an argon-krypton ion laser with the appropriate filter sets for visualizing GFP. […]

Arabidopsis = assay: Number of rosette leaves (vegetative phase) and of cauline leaves and branches (first inflorescence phase) after hormone or inhibitor treatment; assay type: in vivo, Arabidopsis thaliana
Description: Plants were grown at 23° C. in a 16 h light/8 h dark cycle. The following plant lines were previously described: lfy-1 null and lfy-2 hypomorph mutants; lfy-6 null mutants, 35S:LFY-GR; 35S:LFY; gal-3; gai; pRGA:RGA-GFP; pRGA:RGA-HA; gal-3 rgl2-1 rga-2 35S:RGA-GR; pSPL9:rSPL-FLAG; 35S:AlcR pAlcA:mir156f; and 35S:SPL9-GR and pAP1:AP1-GFP. […] Most plants were in the Columbia background except for 35S:LFY-GR, pRGA:RGA-GFP, and lfy-6 mutants, which were in the Landsberg erecta background. To avoid comparisons of plants in different ecotype backgrounds, we performed crosses between homozygous transgenic plants and conducted all subsequent analyses in the F1 population. […] Statistical analyses were performed on plant phenotypes that are normally distributed. The population size was determined by expedience (tissue or plant amount that could reasonably be obtained).
For mock treatment, 0.01% ethanol (EtOH) with 0.01% Silwet L-77 was used as control. […] For paclobutrazol treatment in wild type to examine the number of rosette and cauline leaves formed (figure S8), wild-type plants were first germinated on MS plates. After 4 days plants were transferred either to MS plates containing 1 μM paclobutrazol or to control MS plates and grown for 6 more days. At day 10, the plants were transplanted to soil. […] For test of the number of rosette or cauline leaves produced under conditions of increased DELLA accumulation/activity (FIG. 4E), WT, 35S:LFY/-, pSPL9:rSPL9-FLAG/-, and 35S:LFY/- pSPL9:rSPL9-FLAG/- were first germinated on MS plates, followed by transfer to MS plates containing 1 μM paclobutrazol or to control MS plates from day 4 to day 10 of age. At day 10, the plants were transplanted onto soil.

[1] = wild-type plants, MS plates containing 1 μM paclobutrazol day 4 to day 10, versus control plates

Which “pAP1:AP1-GFP expression in young flower primordia” value (APETALA1 (AP1); 35S:LFY-GR plants, Dex 10 μM plus PAC 10 μM, confocal imaging) does the source give for `CC(C)(C)[C@@H](O)[C@@H](Cc1ccc(Cl)cc1)n1cncn1` (racemic) [paclobutrazol] here?
The value was “increase in AP1-GFP”.

And the “production of AP1 in young flower primordia” value (APETALA1 (AP1); LFY-GR plants, 10 μM paclobutrazol simultaneously with 10 μM dexamethasone, relative to either alone)?
Its value is “increased production of AP1”.

What about the “number of cauline leaves formed” value (Arabidopsis; 35S:LFY pSPL9:rSPL9-FLAG plants, 1 μM paclobutrazol day 4 to day 10, mean±SEM, 35S:LFY plants 2.5±0.2) of the same molecule?
The value was 0.3±0.1.

And the “number of branches and cauline leaves (duration of the first inflorescence phase)” value (Arabidopsis; [1])?
Its value is “fewer”.

And the “number of rosette leaves (duration of the vegetative phase)” value (Arabidopsis; [1])?
The value was “more”.
